These results are taken from ChEMBL document CHEMBL4419163, “Assays for identifying compounds that modulate bitter taste” (2014).

Holding throughout (assay type): functional, cell-based
For assay [1], the target named is T1, Taste receptor type 2 member 16 (Homo sapiens) (UniProt Q9NYV7).
T1 sequence (whole entry): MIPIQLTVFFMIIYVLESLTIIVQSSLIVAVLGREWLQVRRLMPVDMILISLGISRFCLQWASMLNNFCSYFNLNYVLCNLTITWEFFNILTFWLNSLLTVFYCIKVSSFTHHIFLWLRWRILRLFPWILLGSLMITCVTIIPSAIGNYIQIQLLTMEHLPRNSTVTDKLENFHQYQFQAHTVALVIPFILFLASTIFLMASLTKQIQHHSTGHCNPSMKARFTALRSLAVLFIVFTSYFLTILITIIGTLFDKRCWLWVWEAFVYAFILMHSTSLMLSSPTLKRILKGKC
Kind of assay: Agonist activity at human TAS2R16 expressed in HEK293T cells co-expressing Galpha15 assessed as increase in intracellular calcium level at 20 mM by Calcium-3 dye based fluorescence assay relative to control. Background: Calcium assays in cells follow changes in intracellular calcium, usually with a dye or a luminescent sensor.

Assay [2] addresses T2, Taste receptor type 2 member 39 (Homo sapiens) (UniProt P59534).
T2 sequence (whole entry): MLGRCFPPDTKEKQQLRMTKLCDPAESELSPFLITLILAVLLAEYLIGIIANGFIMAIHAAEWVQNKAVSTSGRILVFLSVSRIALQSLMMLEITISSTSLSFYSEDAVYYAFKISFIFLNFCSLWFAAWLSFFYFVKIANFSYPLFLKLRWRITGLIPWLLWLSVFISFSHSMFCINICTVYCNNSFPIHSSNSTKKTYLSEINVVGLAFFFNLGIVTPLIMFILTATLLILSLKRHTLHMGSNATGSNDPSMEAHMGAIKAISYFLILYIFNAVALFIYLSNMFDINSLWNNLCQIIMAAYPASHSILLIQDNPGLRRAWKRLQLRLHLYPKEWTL
Briefly: Agonist activity at human TAS2R39 expressed in HEK293T cells co-expressing Galpha15 assessed as increase in intracellular calcium level at 20 mM by Calcium-3 dye based fluorescence assay relative to control.

Assay [3] has as its target T3, Taste receptor type 2 member 42 (Homo sapiens) (UniProt Q7RTR8).
T3 sequence (whole entry): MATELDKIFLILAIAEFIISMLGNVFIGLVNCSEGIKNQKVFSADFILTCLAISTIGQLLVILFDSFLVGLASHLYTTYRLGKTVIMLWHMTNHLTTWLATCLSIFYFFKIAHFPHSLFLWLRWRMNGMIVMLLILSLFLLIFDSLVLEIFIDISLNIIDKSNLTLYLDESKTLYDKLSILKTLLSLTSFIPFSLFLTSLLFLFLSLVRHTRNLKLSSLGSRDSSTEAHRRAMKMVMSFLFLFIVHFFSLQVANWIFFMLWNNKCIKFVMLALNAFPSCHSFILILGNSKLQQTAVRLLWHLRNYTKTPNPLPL
Kind of assay: Agonist activity at human TAS2R55 expressed in HEK293T cells co-expressing Galpha15 assessed as increase in intracellular calcium level at 20 mM by Calcium-3 dye based fluorescence assay relative to control.

Assay [4] concerns the target T4, Taste receptor type 2 member 19 (Homo sapiens) (UniProt P59542).
T4 sequence (whole entry): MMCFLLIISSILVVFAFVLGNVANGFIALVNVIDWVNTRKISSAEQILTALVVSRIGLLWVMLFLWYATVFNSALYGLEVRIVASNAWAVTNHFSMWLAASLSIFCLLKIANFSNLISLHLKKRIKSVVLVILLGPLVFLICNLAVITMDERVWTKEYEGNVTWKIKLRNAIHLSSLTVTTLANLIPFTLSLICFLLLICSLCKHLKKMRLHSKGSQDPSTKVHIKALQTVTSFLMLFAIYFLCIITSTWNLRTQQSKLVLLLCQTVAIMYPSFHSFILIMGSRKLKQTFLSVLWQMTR
Briefly: Agonist activity at human TAS2R48 expressed in HEK293T cells co-expressing Galpha15 assessed as increase in intracellular calcium level at 20 mM by Calcium-3 dye based fluorescence assay relative to control.

The target in assay [5] is T5, Taste receptor type 2 member 41 (Homo sapiens) (UniProt P59536).
T5 sequence (whole entry): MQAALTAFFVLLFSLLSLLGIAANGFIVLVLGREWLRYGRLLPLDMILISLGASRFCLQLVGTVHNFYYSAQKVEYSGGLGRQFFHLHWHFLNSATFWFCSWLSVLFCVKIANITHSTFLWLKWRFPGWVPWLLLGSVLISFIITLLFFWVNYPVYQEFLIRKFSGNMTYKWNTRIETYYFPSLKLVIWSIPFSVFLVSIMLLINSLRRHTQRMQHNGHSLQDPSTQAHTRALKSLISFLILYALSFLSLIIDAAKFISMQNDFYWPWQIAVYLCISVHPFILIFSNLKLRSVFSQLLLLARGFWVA
Briefly: Agonist activity at human TAS2R41 expressed in HEK293T cells co-expressing Galpha15 assessed as increase in intracellular calcium level at 20 mM by Calcium-3 dye based fluorescence assay relative to control.

Assay [6] has as its target T6, Taste receptor type 2 member 9 (Homo sapiens) (UniProt Q9NYW1).
T6 sequence (whole entry): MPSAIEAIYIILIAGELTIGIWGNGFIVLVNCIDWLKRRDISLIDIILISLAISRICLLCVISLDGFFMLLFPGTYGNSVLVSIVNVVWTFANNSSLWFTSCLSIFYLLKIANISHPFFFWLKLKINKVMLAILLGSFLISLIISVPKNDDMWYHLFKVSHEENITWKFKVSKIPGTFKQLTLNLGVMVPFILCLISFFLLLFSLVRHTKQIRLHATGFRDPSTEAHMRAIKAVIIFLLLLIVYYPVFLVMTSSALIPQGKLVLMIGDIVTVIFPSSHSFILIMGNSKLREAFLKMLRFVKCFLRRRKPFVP
Kind of assay: Agonist activity at human TAS2R9 expressed in HEK293T cells co-expressing Galpha15 assessed as increase in intracellular calcium level at 20 mM by Calcium-3 dye based fluorescence assay relative to control.

Assay [7] addresses T7, Taste receptor type 2 member 38 (Homo sapiens) (UniProt P59533).
T7 sequence (whole entry): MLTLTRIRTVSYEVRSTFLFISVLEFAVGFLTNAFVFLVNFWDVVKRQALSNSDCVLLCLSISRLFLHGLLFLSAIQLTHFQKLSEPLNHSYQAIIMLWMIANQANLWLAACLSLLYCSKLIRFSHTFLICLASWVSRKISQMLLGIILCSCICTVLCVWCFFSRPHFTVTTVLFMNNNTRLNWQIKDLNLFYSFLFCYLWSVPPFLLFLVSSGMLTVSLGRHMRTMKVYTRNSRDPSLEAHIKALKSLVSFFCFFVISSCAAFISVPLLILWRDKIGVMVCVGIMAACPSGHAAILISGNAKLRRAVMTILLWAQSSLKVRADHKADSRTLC
Briefly: Agonist activity at human TAS2R38 expressed in HEK293T cells co-expressing Galpha15 assessed as increase in intracellular calcium level at 20 mM by Calcium-3 dye based fluorescence assay relative to control.

In the case of `CC(O)C(=O)[O-].[K+]` (stereo unspecified), the Activity is less than 40% in assay [1]; less than 40% in assay [2]; less than 40% in assay [3]; less than 40% in assay [4]; less than 40% in assay [5]; greater than 40% in assay [6]. In addition, the Activity in assay [7] was less than 40%.
On to `[Cl-].[K+]` [POTASSIUM CHLORIDE], for which the Activity in assay [1] is less than 40%; in assay [2], less than 40%; in assay [3], less than 40%; in assay [4] it was less than 40%; in assay [5] it was less than 40%; in assay [6], greater than 40%. The Activity in assay [7] was less than 40%.
For the compound `CC1=CC(=O)NS(=O)(=O)O1`, the Activity in assay [1] was greater than 40%; in assay [2], less than 40%; in assay [3], less than 40%; in assay [4], less than 40%; in assay [5] it was less than 40%; in assay [6], greater than 40%. In assay [7], the Activity was less than 40%.
